Where two headings read alike, the source gives them in different places. Some results are limits rather than exact numbers.

The text below walks through data of patent US7183411B2, “Naphthol, quinoline and isoquinoline-derived urea modulators of vanilloid VR1 receptor” (Janssen Pharmaceutica N.V., priority 2002, dated 2007).

The target in test [1] is T1, human VR1 (Homo sapiens, UniProt Q8NER1).
T1 construct: expressed in transfected cells; host or cells: HEK293
Nature of the test: Broadly stimulated recombinant human VR1 functional assay (Ca2+ influx, FLIPR). It is filed as cell-based.

The target in test [2] is recombinant rat VR1 (rVR1/HEK293) (Rattus norvegicus, UniProt O35433). Nature of the test: Broadly stimulated recombinant rat VR1 functional assay (Ca2+ influx, FLIPR). The following applies: for IC50: recombinant rat VR1, Ca2+ influx.
Source text: In an effort to identify potent and efficacious antagonists at human and rat VR1 that were active under conditions simulating aspects of in vivo inflammation functional assays were developed using FLIPR to determine antagonist activity against endogenous activators and stimuli likely to be present in inflammation. Cell lines were constructed that stably expressed recombinant rat VR1 (rVR1/HEK293). Cells were exposed to various stimuli at their EC80, with the exception of the low pH and DTT stimuli.
These studies were corroborated and further studies were performed to confirm that the phorbol ester effect was not due to direct effects on the channel. […] Cells were challenged with 300 nM PMA (˜EC80) after 3 min in the indicated antagonist.
Cells were challenged with 5–10 mM DTT to stimulate VR1 after 3 min incubation in compound.
We performed assays similar to those described for the human recombinant receptor with the exception that a lower pH was required in the Ca^2+ influx assay at the rat recombinant receptor.
In test [3] the test system is Carrageenan paw-induced thermal hyperalgesia. Nature of the test: Carrageenan paw-induced thermal hyperalgesia. It is filed as in vivo. The following applies: rat, po, reversal of carrageenan thermal hyperalgesia; read-out: CgHP ED50. How it is done: Each rat is placed on a heated surface (51° C.) in order to measure the time necessary to elicit a response, and an initial (baseline) response time to a thermal stimuli was recorded for each animal. A response is defined as any shaking, licking, or tucking of the treated paw or jumping. Animals not treated with a test compound respond in approximately 20 seconds. The maximal exposure time permitted is 60 seconds to prevent tissue damage. Rats were injected with an irritant (e.g., 1% carrageenan solution in 0.9% saline) subcutaneously into the sub-plantar tissue of the left hind paw to stimulate an acute inflammatory reaction.
Two hours later, the response time of the animal to the thermal stimulus was evaluated and compared to the animal's baseline response time. This shorter response time was recorded as percent hyperalgesia (% H). A cut-off value for % H (usually 75%) was used during analysis to ensure that the animals were hyperalgesic. Animals were then dosed with test drug or vehicle.
At some time(s) later (typically 45 and 90 minutes), the response time of the animal to the thermal stimulus was again evaluated. For each time point, a percent reversal of hyperalgesia (% R) was calculated using the following formula: % R=(Drug Latency−Carrageenan latency)/(Baseline latency−Carrageenan latency). ED50 values were calculated from % R obtained at several drug doses.
Background: The carrageenan paw model is a standard test of acute inflammation.

The target of test [4] is T2, human VR1 vanilloid receptors (Homo sapiens, UniProt Q8NER1).
T2 construct: expressed in transfected cells; host or cells: HEK293
As to the kind of experiment: [3H] RTX binding assay, hVR1 membranes from transfected HEK293 cells. The following applies: human VR1, read-out: Receptor binding Ki. How it is done: Compounds of the present invention were tested for their ability to inhibit the binding of [^3H] RTX to hVR1 receptors in a [^3H] RTX binding assay as previously described (Zhang, Sui-Po. Improved ligand binding assays for vanilloid receptors. PCT Int. Appl. (2002), 29 pp. CODEN: PIXXD2 WO 0233411 A1 20020425 AN 2002:315209; Grant, Elfrida R.; Dubin, Adrienne E.; Zhang, Sui-Po; Zivin, Robert A.; Zhong, Zhong Simultaneous intracellular calcium and sodium flux imaging in human vanilloid receptor 1 (VR1)-transfected human embryonic kidney cells: a method to resolve ionic dependence of VR1-mediated cell death. Journal of Pharmacology and Experimental Therapeutics (2002), 300(1), 9–17.)
HEK293 cells were transfected with human VR1 vanilloid receptors and washed with Hank's Balanced Salt Solution, dissociated with cell dissociation buffer (Sigma), and then centrifuged at 1000×g for 5 min. Cell pellets were homogenized in cold 20 mM HEPES buffer, pH 7.4, containing 5.8 mM NaCl, 320 mM sucrose, 2 mM MgCl2, 0.75 CaCl2 and 5 mM KCl and centrifuged at 1000×g for 15 min. The resultant supernate was then centrifuged at 40000×g for 15 min. The pelleted membranes were kept in an −80° C. freezer.
Approximately 120 μg protein/ml from membranes were incubated with indicated concentrations of [^3H] RTX in 0.5 ml of the HEPES buffer (pH 7.4) containing 0.25 mg/mL fatty acid-free bovine serum albumin at 37° C. for 60 min. The reaction mixture was then cooled to 4° C., 0.1 mg α1-acid glycoprotein added to each sample and incubated at 4° C. for 15 min. The samples were centrifuged at 18500×g for 15 min. The tip of the microcentrifuge tube containing the pellet was cut off. Bound radioactivity was quantified by scintillation counting. Non-specific binding was tested in the presence of 200 nM unlabeled RTX.

The target in test [5] is T1, human VR1. Nature of the test: Human VR1 functional assay (FLIPR intracellular Ca2+, capsaicin challenge). It is filed as cell-based. As to conditions: read-out: In vitro functional assays hIC50 or EC50. Here is the method: The functional activity of the test compounds was determined by measuring changes in intracellular calcium concentration using a Ca^++-sensitive fluorescent dye and FLIPR™ technology.
HEK293 Cells expressing human VR1 were grown on poly-D-lysine coated 96 well black-walled plates (BD 354640) and 2 days later loaded with Fluo-3/AM for 1 hour and subsequently tested for agonist-induced increases in intracellular Ca^2+ levels using FLIPR™ technology. […] EC50 or IC50 values were determined from dose-response studies.

For test [6], the system named is DSS-induced acute colitis. Nature of the test: Rodent colitis model (5% dextran sulfate sodium). As to conditions: preliminary study. Type of test: in vivo, mice or rats. Here is the method:
5% Dextran Sulfate Sodium administered in the drinking water of mice or rats for 7 days results in an acute colitis with some morphological changes that are similar to human ulcerative colitis. Among those changes are colon shortening, accumulation of neutrophils and other inflammatory cells, decreases in colon weight, decreases in body weight, tissue damage in the colon, and loss of stool consistency.
Each animal is dosed daily in the morning and late afternoon for BID dosing. Treatment with vehicle or test compound begins on day 0, immediately after initial body weights are taken, and ends on day 6. Water bottles are removed and replaced by graduated water bottles containing 5% DSS in indicated groups. Tap water remains on control groups only. Sufficient DSS drinking water is placed in graduated water bottles and refilled each day to monitor daily output. Animals are weighed daily from day 0 to 7, and animal condition and the consistency of stools recorded. Following sacrifice of the animal on day 7, the colon is surgically removed from the distal rectum (anus) to the cecal-colonic juncture and the colon length and weight measured. Colon slices may be obtained for histological evaluation. […] Water consumption and body weights are measured daily. […] An increase in myeloperoxidase activity occurs in this model and is evaluated separately.

The test system of test [7] is capsaicin-induced guinea pig bronchial ring contraction. As to the kind of experiment: Isolated guinea pig bronchial rings, capsaicin-induced contraction (organ bath). Here is the method:
Aminotetralin VR1 antagonists were tested for their potency to block capsaicin-induced guinea pig bronchial ring contraction in a standard in vitro organ bath assay [Tucker, 2001]. Two mm rings of bronchial tissue obtained from male guinea pigs (325 g) were suspended in normal Krebs solution between two wire hooks under an initial loading tension of 1 gram. The saline was maintained in a 5% CO2 and 95% O2 atmosphere at 37° C. in the presence of indomethacin (5 μM). A sub-maximal dose of 5-Methylfurmethide (5Mef, 1 μM) was added to each tissue to determine responsiveness using an isometric force transducer. After washout, tissues were exposed to compounds or vehicle for 30 min, treated with thiorphan (10 μM, 5% Na2CO3), and primed using KCl in increasing linear concentrations from 1 mM at 1 mM intervals until a slight increase in muscle tone was induced (˜1% of 5Mef response). […] The dose response curve was calculated as % max of the 5-Mef response and estimated pA2 were determined [Tucker, 2001]).

Test [8] addresses T3, VR1 expressed endogenously on small rat dorsal root ganglion (DRG) neurons (Rattus norvegicus, UniProt O35433).
T3 construct: VR1 expressed endogenously on small rat dorsal root ganglion (DRG) neurons; endogenous in cells; host or cells: dissociated rat DRG neurons
As to the kind of experiment: Electrophysiologic functional assay using dissociated rat DRG cells. It is filed as cell-based. The following applies: read-out: In vitro functional assays Estimated pA2 (rat) (converted). How it is done:
Compounds are tested for their activity on VR1 expressed endogenously on small rat dorsal root ganglion (DRG) neurons. DRG neurons from normal rats were dissociated (see methods in Chaplan et al., 2003) and whole cell currents mediated by VR1 were recorded using the whole cell patch clamp technique.

Setting [9] is: recombinant human VR1, Ca2+ influx, stimulus 300 nM PMA, read-out: IC50, PKC phosphorylation.
Setting [10] is: recombinant human VR1, Ca2+ influx, stimulus low pH (pH 6.5), read-out: IC50, Low pH.

T1 sequence (Q8NER1 whole entry): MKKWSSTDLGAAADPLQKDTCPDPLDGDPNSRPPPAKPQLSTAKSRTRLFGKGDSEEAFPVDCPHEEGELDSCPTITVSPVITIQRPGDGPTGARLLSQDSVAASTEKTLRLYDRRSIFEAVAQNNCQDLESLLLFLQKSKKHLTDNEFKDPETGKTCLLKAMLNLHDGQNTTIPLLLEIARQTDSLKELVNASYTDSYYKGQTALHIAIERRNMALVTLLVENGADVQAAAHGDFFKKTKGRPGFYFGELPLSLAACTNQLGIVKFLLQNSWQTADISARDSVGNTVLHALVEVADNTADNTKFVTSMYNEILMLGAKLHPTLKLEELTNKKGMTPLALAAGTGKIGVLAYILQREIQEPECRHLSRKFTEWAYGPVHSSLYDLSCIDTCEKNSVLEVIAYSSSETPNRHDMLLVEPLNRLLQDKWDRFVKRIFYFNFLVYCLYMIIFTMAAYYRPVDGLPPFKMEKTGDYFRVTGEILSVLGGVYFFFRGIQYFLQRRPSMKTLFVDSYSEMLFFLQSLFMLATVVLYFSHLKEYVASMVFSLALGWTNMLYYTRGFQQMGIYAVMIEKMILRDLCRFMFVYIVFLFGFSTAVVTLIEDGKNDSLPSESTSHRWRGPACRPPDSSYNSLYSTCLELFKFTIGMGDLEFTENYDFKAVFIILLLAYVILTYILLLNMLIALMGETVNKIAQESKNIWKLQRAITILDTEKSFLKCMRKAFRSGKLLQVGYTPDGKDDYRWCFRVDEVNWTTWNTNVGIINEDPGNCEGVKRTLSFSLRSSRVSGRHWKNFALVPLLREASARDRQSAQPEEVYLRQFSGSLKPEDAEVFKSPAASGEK
T2 sequence (Q8NER1 whole entry): as above
Sequence of recombinant rat VR1 (rVR1/HEK293) (O35433 whole entry): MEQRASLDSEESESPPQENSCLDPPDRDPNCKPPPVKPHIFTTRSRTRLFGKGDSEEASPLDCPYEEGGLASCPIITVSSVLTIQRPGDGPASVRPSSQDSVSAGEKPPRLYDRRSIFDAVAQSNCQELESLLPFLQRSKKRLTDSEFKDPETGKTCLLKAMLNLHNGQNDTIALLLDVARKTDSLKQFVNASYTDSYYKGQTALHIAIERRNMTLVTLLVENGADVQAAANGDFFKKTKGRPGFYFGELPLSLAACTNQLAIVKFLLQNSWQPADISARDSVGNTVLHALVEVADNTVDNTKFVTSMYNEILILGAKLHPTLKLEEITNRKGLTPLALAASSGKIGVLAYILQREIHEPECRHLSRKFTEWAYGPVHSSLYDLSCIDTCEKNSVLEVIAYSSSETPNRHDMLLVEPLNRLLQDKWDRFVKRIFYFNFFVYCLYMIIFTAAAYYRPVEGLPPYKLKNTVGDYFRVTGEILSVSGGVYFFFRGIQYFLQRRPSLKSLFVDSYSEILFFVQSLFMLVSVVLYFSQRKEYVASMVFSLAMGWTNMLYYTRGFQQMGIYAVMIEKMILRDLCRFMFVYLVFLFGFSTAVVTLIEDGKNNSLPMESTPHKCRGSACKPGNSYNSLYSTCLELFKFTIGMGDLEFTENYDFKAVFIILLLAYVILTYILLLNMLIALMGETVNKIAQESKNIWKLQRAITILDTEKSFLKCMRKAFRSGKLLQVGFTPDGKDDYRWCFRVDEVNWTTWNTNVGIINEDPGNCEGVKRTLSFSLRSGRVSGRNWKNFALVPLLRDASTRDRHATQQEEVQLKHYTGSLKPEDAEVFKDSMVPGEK
T3 sequence (O35433 whole entry): as above

In the case of `Oc1cc2c(cc1O)CN(C(=S)NCCc1ccc(Cl)cc1)CCC2` [Capsazepine, capsazepine], the IC50 is 100 to 300 nM in test [1] (human recombinant receptor, FIG. 1, read-out: potency to inhibit Ca2+ activity induced by the panel of stimuli); 370 nM in test [1] (recombinant human VR1, Ca2+ influx, PMA at low pH, read-out: IC50, PKC phosphorylation at low pH); 160 nM in test [1] (setting [9]); 110 nM in test [1] (setting [10]); 1300 nM in test [2] (IC50, Anandamide, stimulus anandamide 10 μM); 5000 nM in test [2] (IC50, Low pH, stimulus low pH (pH 5.9)). The IC50 in test [2] (IC50, PKC phosphorylation at low pH, PMA at low pH) is 10000 nM; in test [2] (IC50, PKC phosphorylation, stimulus 300 nM PMA), 10000 nM.

Regarding `O=C(NCc1ccc(C(F)(F)F)cc1)Nc1cccc2cnccc12` [Compound 4], in test [3], the ED50 (as a rule, the dose at which the effect has come halfway, by size or by number of responders) turned out to be 0.804 mg/kg. Also, the inhibitory constant (Ki) (in general, a dissociation constant, usually derived from enzyme kinetics or from competition with a known ligand) in test [4] is 6.87 nM.

Turning to `O=C(NCc1ccc(C(F)(F)F)cc1)Nc1cccc2ccc(O)cc12` [Compound 17], the IC50 or EC50 in test [5] came to 4 nM. The ED50 in test [3] came to 20 mg/kg. For the same compound, the Ki in test [4] was determined as 0.1 nM.

As for `O=C(NCc1ccc(C(F)(F)F)nc1)Nc1cccc2ccc(O)cc12` [Compound 29], the IC50 or EC50 in test [5] was 44 nM. In test [4], the inhibitory constant (Ki) is 36.1 nM.

For `O=C(NCc1ccc(Cl)c(Cl)c1)Nc1cccc2ccc(O)cc12` [Compound 31], the IC50 or EC50 in test [5] was 15 nM. The inhibition constant Ki in test [4] is 2.03 nM.

With `CC(C)(C)c1ccc(CNC(=O)Nc2cccc3cnccc23)cc1` [Compound 33], in test [6], the “protection against colon shortening” value was “did not protect” and the “protection against colon weight loss” value is on record as “did not protect”. For the same compound, the IC50 or EC50 in test [5] was 2.7 nM. In test [7], the “antagonist Kb (from pA2) against capsaicin-induced contraction” value is given as 13 nM. Besides, in test [3], the ED50 was 0.276 mg/kg. Further, the inhibition constant (Ki) in test [4] is 0.26 nM.

Consider `CC(C)(C)c1ccc(CCNC(=O)Nc2cccc3cnccc23)cc1` [Compound 35], for which the IC50 or EC50 in test [5] was found to be 5.8 nM. Further, in test [4], the inhibitory constant (Ki) is 1.3 nM.

Turning to `COc1ccc(CNC(=O)Nc2cccc3cnccc23)cc1` [Compound 37], the IC50 or EC50 in test [5] was found to be 45 nM. Besides, the inhibition constant Ki in test [4] came out at 193 nM.

In the case of `O=C(NCCc1ccc(OC(F)(F)F)cc1)Nc1cccc2cnccc12` [Compound 38], the IC50 or EC50 in test [5] is 11 nM. Besides, in test [4], the Ki worked out at 6.03 nM.

With `O=C(NCc1ccc(C(F)(F)F)cc1)Nc1cccc2c(Cl)nccc12` [Compound 55, 1-(1-Chloro-isoquinolin-5-yl)-3-(4-trifluoromethyl-benzyl)-urea], the Kb in test [8] was under 30 nM. The Ki in test [4] is 7.35 nM.

For the compound `O=C(NCc1ccc(Cl)c(C(F)(F)F)c1)Nc1cccc2ccc(O)cc12` [Compound 57, 1-(4-Chloro-3-trifluoromethyl-benzyl)-3-(7-hydroxy-naphthalen-1-yl)-urea], the Kb in test [8] was about 10 nM. Also, the ED50 in test [3] was determined as 0.354 mg/kg. The inhibitory constant (Ki) in test [4] was 1.14 nM.

`CN(CC1CCCCC1)c1ccc(CNC(=O)Nc2cnc3ccccc3c2)cc1` [Compound 65]: the IC50 or EC50 in test [5] turned out to be 10000 nM. The Ki in test [4] was 129 nM.

On to `OO` [Compound H2O2, H2O2], for which the “EC80 for H2O2-induced Ca2+ flux” value in test [1] (VR1/HEK cells, species not stated) was determined as 0.015 % H2O2.

As for `CCCCCCCCCCCCCC(=O)O[C@@H]1[C@@H](C)[C@@]2(O)[C@@H](C=C(CO)C[C@]3(O)C(=O)C(C)=C[C@@H]23)[C@@H]2C(C)(C)[C@]12OC(C)=O` [PMA, phorbol-12-myristate-13-acetate], the 50% effective concentration (EC50) (as a rule, the concentration that produces a half-maximal response) in test [1] (agonist at human recombinant VR1, read-out: EC50 (increase in intracellular Ca2+)) was determined as 90 nM; in test [2] (read-out: EC50 (increase in intracellular Ca2+), agonist at rat recombinant VR1) it was 90 nM.

With `Cl.Cl.Cl.Cl.Cl.Cl.N.N.N.N.N.N.N.N.N.N.N.N.N.N.[O-2].[O-2].[Ru+3].[Ru+3].[Ru+4]` [Ruthenium Red, ruthenium red], the IC50 in test [1] (setting [9]) was 500 nM; in test [1] (setting [10]), 500 nM; in test [2] (read-out: IC50, Anandamide, stimulus anandamide 10 μM) it was 1860 nM; in test [2] (read-out: IC50, PKC phosphorylation, stimulus 300 nM PMA), 300 nM.

Turning to `CCCCC/C=C\C/C=C\C/C=C\C/C=C\CCCC(=O)NCCO` [anandamide, Anandamide], the EC50 in test [1] stood at 3000 nM; in test [2], 5000 nM.
